Source: PMC7866079, “Investigation of Receptor Heteromers Using NanoBRET Ligand Binding” (International Journal of Molecular Sciences, 2021)

Key:
β2AR = molecular target: T1, β2AR (Homo sapiens, UniProt P07550); assay: NanoBRET saturation ligand binding, cells expressing Nluc-β2AR
T1 construct: host or cells: HEK293FT, transient transfection
Procedure: (§1) All individual experiments were conducted with duplicate wells.
(§2) All data were presented and analyzed using GraphPad Prism 8.0. Saturation binding data were fitted with one-site nonlinear regression for specific binding. Competition binding data were fitted using logarithmic nonlinear regression (three parameter). Statistical analysis was performed as described in the relevant figure/table legends or in the text, with p < 0.05 considered significant.

AT1-β2AR heteromer = molecular target: T2, AT1-β2AR heteromer (Homo sapiens, UniProt P07550); assay: NanoBRET saturation ligand binding, Receptor-HIT configuration, cells expressing Nluc-AT1 + β2AR; settings: mean ± SEM, n = 8, BODIPY-propranolol saturation, non-specific binding with 10 μM propranolol, read-out: Kd (affinity of binding to AT1-β2AR heteromers)
T2 construct: expressed in transfected cells; host or cells: HEK293FT, transient cotransfection
T2 sequence (P07550 whole entry, one chain of several): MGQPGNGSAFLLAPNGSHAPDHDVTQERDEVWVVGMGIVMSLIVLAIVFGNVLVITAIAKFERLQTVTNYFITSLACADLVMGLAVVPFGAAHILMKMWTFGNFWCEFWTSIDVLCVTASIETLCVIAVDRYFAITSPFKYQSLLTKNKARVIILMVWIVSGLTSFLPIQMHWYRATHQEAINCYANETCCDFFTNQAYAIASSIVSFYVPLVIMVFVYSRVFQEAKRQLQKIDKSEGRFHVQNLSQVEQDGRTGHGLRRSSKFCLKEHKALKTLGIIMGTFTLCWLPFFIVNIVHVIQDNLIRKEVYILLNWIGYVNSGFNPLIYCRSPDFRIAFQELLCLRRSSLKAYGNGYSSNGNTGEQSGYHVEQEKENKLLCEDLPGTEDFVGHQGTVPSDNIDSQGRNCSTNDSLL
Procedure: as §1, §2

AT1 receptor = molecular target: T3, AT1 receptor (Homo sapiens, UniProt P30556); assay: NanoBRET competition binding of TAMRA-AngII, cells expressing Nluc-AT1; settings: various concentrations of TAMRA-AngII, increasing concentrations of competitor
T3 construct: host or cells: HEK293FT, transient transfection
T3 sequence (P30556 1-359): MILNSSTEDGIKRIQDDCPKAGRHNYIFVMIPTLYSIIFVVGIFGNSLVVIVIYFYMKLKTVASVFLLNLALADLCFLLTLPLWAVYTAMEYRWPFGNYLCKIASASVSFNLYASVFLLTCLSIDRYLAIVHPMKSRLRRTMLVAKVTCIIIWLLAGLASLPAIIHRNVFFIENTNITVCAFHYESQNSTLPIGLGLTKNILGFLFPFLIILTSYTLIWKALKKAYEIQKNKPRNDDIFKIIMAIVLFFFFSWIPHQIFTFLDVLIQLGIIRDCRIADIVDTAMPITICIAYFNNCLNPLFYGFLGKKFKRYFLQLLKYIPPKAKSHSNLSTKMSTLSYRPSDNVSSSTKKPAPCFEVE
Procedure: Figure 8 Competition binding of TAMRA-AngII to the AT1 receptor and the AT1-AT2 heteromer.
The relative BRET ratio was calculated by normalizing the data, as described in the figure legends. All individual experiments were conducted with duplicate wells.

T1 sequence (P07550 whole entry): as the sequence (P07550 whole entry, one chain of several) above

Row | Compound | specific binding to Nluc-β2AR (β2AR; cells expressing Nluc-β2AR only, presence or absence of 10 μM propranolol) | Kd (β2AR; mean ± SEM, n = 4, cells expressing Nluc-β2AR, BODIPY-propranolol saturation, non-specific binding with 10 μM propranolol, read-out: Kd (affinity of binding to β2ARs)) [nM] | Kd (AT1-β2AR heteromer) [nM] | displacement of TAMRA-AngII bound to Nluc-AT1 (AT1 receptor)
1 | CC[C@H](C)[C@H](NC(=O)[C@H](Cc1ccc(O)cc1)NC(=O)[C@@H](NC(=O)[C@H](CCCNC(=N)N)NC(=O)[C@H](CC(=O)O)NC(=O)CCCCCNC(=O)COc1ccc(/C=C/c2ccc3n2[B-](F)(F)[N+]2=C(c4cccs4)C=CC2=C3)cc1)C(C)C)C(=O)N[C@@H](Cc1c[nH]cn1)C(=O)N1CCC[C@H]1C(=O)N[C@@H](Cc1ccccc1)C(=O)O [BODIPY-AngII] | no specific binding | 3.9 ± 0.5 | 8.8 ± 4 | 
2 | Cc1cc(Cn2cnc3c2C[C@@H](C(=O)O)N(C(=O)C(c2ccccc2)c2ccccc2)C3)ccc1N(C)C [PD 123319] |  |  |  | unable to see any displacement
